Source: US20260373266A1, “PROTEIN DEGRADERS AND USES THEREOF” (KYMERA THERAPEUTICS, INC., priority 2022, published 2026)

What follows are compounds tested against T1, DCAF1 WD40 domain (residues 1077-1390) (Homo sapiens, UniProt Q9Y4B6) (assay: DCAF1 binding assay by SPR (Biacore 8K+), DCAF1-3 KD). Conditions: 25 °C, read-out: DCAF1-3 SPR (KD).
T1 construct: DCAF1 WD40 domain (residues 1077-1390)
T1 sequence (Q9Y4B6 1077-1390): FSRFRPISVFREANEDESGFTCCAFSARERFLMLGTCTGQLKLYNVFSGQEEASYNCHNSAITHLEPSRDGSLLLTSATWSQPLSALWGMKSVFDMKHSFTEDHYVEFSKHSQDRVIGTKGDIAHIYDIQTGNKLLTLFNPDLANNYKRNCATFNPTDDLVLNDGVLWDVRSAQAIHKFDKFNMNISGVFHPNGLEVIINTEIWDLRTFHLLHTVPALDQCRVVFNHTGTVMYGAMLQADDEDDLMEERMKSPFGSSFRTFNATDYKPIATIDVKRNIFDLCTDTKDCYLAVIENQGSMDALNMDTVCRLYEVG
`NC(=O)N1Cc2ccc(N3CCC[C@H]4[C@@H]3CCN4c3cc(N4CCCCC4)ccn3)cc2C1` [I-956] showed a Kd of less than 10 µM.
For `NC(=O)N1Cc2ccc(N3CCC[C@@H]4[C@H]3CCN4c3cc(N4CCCCC4)ccn3)cc2C1` [I-957], the Kd was 10 to 100 µM.
With `O=C1NCCN1Cc1cccc(N2CCC[C@@H]3[C@H]2CCN3c2cc(N3CCCCC3)ccn2)c1` [I-959] the Kd was 10 to 100 µM.
For `O=C1NCCN1Cc1cccc(N2CCC[C@H]3[C@@H]2CCN3c2cc(N3CCCCC3)ccn2)c1` [I-960], the Kd was less than 10 µM.
Work on `NS(=O)(=O)CCc1cccc(N2CCC[C@H]3[C@@H]2CCN3c2cc(N3CCCCC3)ccn2)c1` [I-964] yielded a Kd of less than 10 µM.
For `Cc1c(F)ccc(F)c1-c1[nH]ncc1C(=O)N[C@@H](c1cccc(Cl)c1)[C@H]1CCOC1` [I-965], the Kd was 100 to 200 µM.
In the case of `Cc1c(F)ccc(F)c1-c1[nH]ncc1C(=O)N[C@H](c1cccc(Cl)c1)[C@@H]1CCOC1` [I-967], the Kd is reported as 10 to 100 µM.
`Cc1c(F)ccc(F)c1-c1[nH]ncc1C(=O)N[C@H](c1cccc(Cl)c1)[C@H]1CCOC1` [I-968] was tested, and the Kd was 10 to 100 µM.
In the case of `Cc1cc(Cl)cc(C)c1-c1c(C(=O)N[C@@H](CC(N)=O)c2cccc(Cl)c2)c[nH]c1C(=O)c1ccccc1` [I-969], the Kd is reported as less than 10 µM.
`Nc1cc(N[C@@H]2CCCN(c3cccc(F)c3)C2)cc(C2CCCCC2)c1` [I-970] showed a Kd of 10 to 100 µM.
`OCCOCCOCCOCCOCCC1CCCCN1c1ccnc(N2CC[C@@H]3[C@H]2CCCN3c2cccc(F)c2)c1` (stereo partly drawn) [I-971] showed a Kd of less than 10 µM.
In the case of `Cc1c(F)ccc(F)c1-c1c(C(=O)N[C@@H](CC(N)=O)c2cccc(Cl)c2)csc1C#N` [I-972], the Kd is reported as less than 10 µM.
In the case of `COCCC(=O)c1c(-c2c(F)ccc(F)c2C)c(C(=O)N[C@@H](CC(N)=O)c2cccc(Cl)c2)cn1C` [I-973], the Kd is reported as less than 10 µM.
With `CCn1cc(C(=O)N[C@@H](CC(N)=O)c2cccc(Cl)c2)c(-c2c(F)ccc(F)c2C)c1C#N` [I-974] the Kd was less than 10 µM.
In the case of `Cc1c(F)ccc(F)c1-c1c(C(=O)N[C@@H](CC(N)=O)c2cccc(Cl)c2)cn(C(C)C)c1C#N` [I-976], the Kd is reported as less than 10 µM.
In the case of `OCCCCCCCCC1CCN(c2ccnc(N3CC[C@@H]4[C@H]3CCCN4c3cccc(F)c3)c2)CC1` [I-977], the Kd is reported as 10 to 100 µM.
Work on `Cc1ccc(CCCOCCOCCOCCOCCOCCN)c(F)c1-c1c(C(=O)N[C@@H](CC(N)=O)c2cccc(Cl)c2)c[nH]c1C#N` [I-978] yielded a Kd of less than 10 µM.
`NCCNc1ccc(C2CCCCC2)cc1N[C@@H]1CCCN(c2cccc(F)c2)C1` [I-979] showed a Kd of 10 to 100 µM.
With `OCc1c(CN2CCCCC2)cccc1C1CCCN(c2cccc(F)c2)C1` (stereo not drawn) [I-981] the Kd was 10 to 100 µM.
In the case of `NCC(=O)NCc1ccc(N2CCCCC2)cc1N[C@@H]1CCCN(c2cccc(F)c2)C1` [I-982], the Kd is reported as 10 to 100 µM.
`O[C@H]1CC[C@@H](Nc2cc(N3CCCCC3)ccn2)C[C@@H]1c1ccccc1` [I-984] gave a Kd of 10 to 100 µM.
Compound `O[C@@H]1CC[C@@H](Nc2cc(N3CCCCC3)ccn2)C[C@H]1c1ccccc1` [I-985] has a Kd of 10 to 100 µM.
With `OC[C@@H]1CCN(c2cccc(F)c2)C[C@@H]1Nc1cc(N2CCCCC2)ccn1` [I-988] the Kd was 100 to 200 µM.
Compound `OC[C@@H]1CCN(c2cccc(F)c2)C[C@H]1Nc1cc(N2CCCCC2)ccn1` [I-990] has a Kd of 10 to 100 µM.
For `NCCNC(=O)c1ccc(N2CCCCC2)cc1N[C@@H]1CCCN(c2cccc(F)c2)C1` [I-991], the Kd was 10 to 100 µM.
With `O=C1Nc2cnc(N3CCCCC3)cc2NC12CCCN(c1cccc(F)c1)C2` (stereo not drawn) [I-992] the Kd was 10 to 100 µM.
With `Fc1cccc(N2CCCC3(CNc4cnc(N5CCCCC5)cc4N3)C2)c1` (stereo not drawn) [I-993] the Kd was 10 to 100 µM.
Work on `OC[C@H]1CC[C@H](Nc2cc(N3CCCCC3)ccn2)CN1c1cccc(F)c1` [I-994] yielded a Kd of 10 to 100 µM.
For `OC[C@@H]1CC[C@@H](Nc2cc(N3CCCCC3)ccn2)CN1c1cccc(F)c1` [I-995], the Kd was 10 to 100 µM.
`COCCOCC[C@@H]1CN(c2cc(N3CCCCC3)ccn2)[C@@H]2CCCN(c3cccc(F)c3)[C@H]12` [I-996] showed a Kd of 10 to 100 µM.
`Cc1c(F)ccc(F)c1-c1[nH]ncc1C(=O)N[C@H](c1cccc(Cl)c1)C1CCCS1(=O)=O` (stereo partly drawn) [I-999] gave a Kd of 10 to 100 µM.
Work on `Cc1c(F)ccc(F)c1-c1[nH]ncc1C(=O)N[C@@H](c1cccc(Cl)c1)[C@H]1CCCS1(=O)=O` [I-1000] yielded a Kd of less than 10 µM.
Compound `Nc1cnc(N2CCCCC2)nc1N[C@@H]1CCCN(c2cccc(F)c2)C1` [I-1001] has a Kd of 10 to 100 µM.
